The subject of one data set is KG1a. Description: Cell viability CellTiter-Blue assay, KG1a. It is filed as cell-based, human. As to conditions: for IC50: Homo sapiens, KG-1a, growth inhibition, CellTiter-Blue, 24 h, mean ± SEM. The method, then:
(§1) Human acute myeloid leukemia KG1a and acute T-cell lymphocytic leukemia Jurkat cells were cultured and maintained as previously described. For each experiment, 15,000 cells in 0.1 mL of medium were seeded into a solid-black fluorescence 96-well plate and incubated for 24 h. The cells were treated with different concentrations of the test compounds (from 0.00001 to 100 µM) over a 10-fold dilution series and incubated for 24 h. CellTiter-Blue® solution was added, followed by reading of the fluorescence according to our previous protocol. IC50 values were obtained by using GraphPad Prism 5 software (San Diego, CA, USA). For each concentration, six independent experiments were carried out.
On the technique in general: Resazurin is reduced to fluorescent resorufin, in cell work by metabolically active cells.

The next data set deals with MDA-MB-231. Description: Cell viability by MTT assay, MDA-MB-231. It counts as cell-based. As to conditions: Homo sapiens, growth inhibition, 72 h, mean ± SEM. The method, then:
(§2) Human breast cancer (MDA-MB-231) and cervical cancer (HeLa) cells, obtained from the ATCC (Manassas, VA, USA), were maintained as previously described. Cytotoxic effects of the tested compounds were assessed using MTT assay. Briefly, 4000 cells in 0.1 mL of medium (Life Technologies, Paisley, UK) were seeded and allowed to adhere for 24 h. The cells were treated with different concentrations of the tested compounds (from 0.00001 to 100 µM) and incubated for 72 h. In total, 20 µL of (5 mg/mL) MTT reagent (3-[4,5-dimethylthiazol-2-yl]-2,5-diphenyl tetrazolium bromide) in PBS was added and incubated for 4 h. The developed purple colour following the addition of DMSO was measured using a Multiskan Go machine (spectrophotometer) at 570 nm absorbance. Each concentration experiment was repeated independently 6 times to establish reproducibility. The percentage cell viability was calculated following the formula below, and IC50 values were obtained by using GraphPad Prism 5 software (San Diego, CA, USA). Cell viability (%) = [(OD test − OD blank) ÷ (OD negative control − OD blank)] × 100(1)
Background: Tetrazolium dyes change colour on reduction, which living cells bring about.

In another data set the test system is Jurkat. Description: Cell viability CellTiter-Blue assay, Jurkat (Bcl-2-negative). It counts as cell-based, human. As to conditions: Bcl-2-negative cell line; for IC50: Homo sapiens, Jurkat, growth inhibition, CellTiter-Blue, 24 h, mean ± SEM. As to the method: as §1
The next data set relates to HeLa. Description: Cell viability by MTT assay, HeLa. The following applies: Homo sapiens, growth inhibition, 72 h, mean ± SEM. It is filed as cell-based. The method, then: as §2
The next data set has as its target His-tagged Bcl-2 protein (Homo sapiens, UniProt P10415). Description: Competitive ELISA binding assay (interruption of Bcl-2-Bim interaction). As to conditions: for IC50: competition with Bim peptide, mean and SEM of three independent measurements. As to the method:
ELISA assay was performed to evaluate the ability of the compounds to compete with Bim protein and inhibit its interaction with Bcl-2 protein.. The addition of His-tagged Bcl-2 protein to a biotinylated Bim-coated plate according to our previously published protocol was followed by the addition of anti-His antibody (Abcam, Cambridge, UK) containing horseradish peroxidase enzyme (Qiagen, Crawley, UK), o-phenylenediamine (Sigma-Aldrich, UK) and hydrogen peroxide. The optical density was determined using a plate reader at wavelength of 450 nm. The experiments were carried out on three separate occasions, including both negative and positive controls. A plot of log nM concentration for each inhibitor against the percentage reduction in the Bim peptide was created, using non-linear regression curve analysis (GraphPad Prism 5, San Diego, CA, USA) and a software used to generate IC50 for the Bcl-2 inhibition activity.
(In general: ELISA stands for enzyme-linked immunosorbent assay.)

Data set [1] relates to Bcl-2-expressing human cancer cell lines (MDA-MB-231, HeLa and KG1a). Description: Growth inhibition of Bcl-2-expressing human cancer cell lines (summary). It counts as cell-based. The following applies: span over MDA-MB-231, HeLa and KG1a, read-out: IC50 against Bcl-2-expressing cell lines. As to the method: as §2, with “Cell viability (%) = [(OD test − OD blank) ÷ (OD negative control − OD blank)] × 100(1)” left out
Human acute myeloid leukemia KG1a and acute T-cell lymphocytic leukemia Jurkat cells were cultured and maintained as previously described. For each experiment, 15,000 cells in 0.1 mL of medium were seeded into a solid-black fluorescence 96-well plate and incubated for 24 h. […] CellTiter-Blue® solution was added, followed by reading of the fluorescence according to our previous protocol. […]

“And” between values parts separate entries of the source, which are not always exact repeats. Identical values can stand only once. “Also recorded” adds a separate entry of the source. Where only a bound is given, the exact number is not on record here.

Chain of His-tagged Bcl-2 protein (P10415 whole entry): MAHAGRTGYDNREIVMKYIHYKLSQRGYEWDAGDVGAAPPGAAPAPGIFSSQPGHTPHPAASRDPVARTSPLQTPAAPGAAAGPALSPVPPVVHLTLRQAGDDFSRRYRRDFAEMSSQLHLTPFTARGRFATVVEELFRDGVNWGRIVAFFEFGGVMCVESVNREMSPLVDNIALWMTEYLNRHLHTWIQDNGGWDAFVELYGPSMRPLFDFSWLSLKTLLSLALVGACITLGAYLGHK

Consider `Sc1nn2c(-c3c[nH]c4ccccc34)nnc2s1` [Compound 4, 3-(1H-Indol-3-yl)-[1,2,4]-triazolo[3,4-b]-[1,3,4]-thiadiazole-6-thiol], for which the melting point (usually the temperature, or range, at which the solid turns liquid) was 170 to 172 °C. For the same compound, the IC50 (in general, the concentration that gives 50% inhibition) with KG1a was determined as 28.4 ± 0.43 µM. In the data set with MDA-MB-231, this compound yielded an IC50 of 15 ± 0.6 µM. Moreover, in the data set with Jurkat, half-maximal inhibition (IC50) was put at 10.3 ± 0.14 µM. In the data set with HeLa, this compound had an IC50 of 18.2 ± 0.6 µM.
`Ic1ccc(-c2nn3c(-c4c[nH]c5ccccc45)nnc3s2)cc1` [Compound 5a, 3-[6-(4-Iodophenyl)-[1,2,4]-triazolo[3,4-b]-[1,3,4]-thiadiazol-3-yl]-1H-indole] showed a melting point of 183 to 185 °C. The compound further displayed an IC50 in the data set on KG1a of 1.66 ± 0.03 µM. For the same compound, half-maximal inhibition in the data set with MDA-MB-231 (IC50) required 2.72 ± 0.32 µM. In the data set with Jurkat, this compound displayed an IC50 of 8.12 ± 0.16 µM. For the same compound, it took 0.54 ± 0.02 µM to reach half-maximal inhibition with HeLa (IC50).
In the case of `COc1ccc(-c2nn3c(-c4c[nH]c5ccccc45)nnc3s2)cc1` [Compound 5b, 3-[6-(4-Methoxyphenyl)-[1,2,4]-triazolo[3,4-b]-[1,3,4]-thiadiazol-3-yl]-1H-indole], the melting point was in the range of 192 to 194 °C. The half-maximal inhibitory concentration (IC50) in the data set with KG1a was found to be 3.14 ± 0.19 µM. The same compound had an IC50 in the data set on MDA-MB-231 of 1.7 ± 0.61 µM. This compound also yielded an IC50 on His-tagged Bcl-2 protein of 1.14 ± 0.09 µM. Besides, in the data set with Jurkat, the “activity against Jurkat cells (in words)” value is “no activity” and the IC50 is greater than 100 µM. The compound also gave an IC50 in the data set on HeLa of 2.7 ± 0.9 µM.
`Cc1ccc(-c2nn3c(-c4c[nH]c5ccccc45)nnc3s2)cc1` [Compound 5c, 3-(6-p-Tolyl-[1,2,4]-triazolo[3,4-b]-[1,3,4]-thiadiazol-3-yl)-1H-indole]: the melting point lay in the range of 201 to 203 °C. Further, the “activity against KG1A cell line (in words)” value with KG1a (Acute Myeloid Leukemia cell line) is “inactive”. The compound also gave an IC50 in the data set with KG1a greater than 100 µM. The compound also registered an IC50 with MDA-MB-231 of 16.3 ± 0.19 µM. In the data set with Jurkat, the “activity against Jurkat cells (in words)” value was “no activity” and the IC50 was greater than 100 µM. This compound gave an IC50 with HeLa of 12.5 ± 0.23 µM.
The compound `Brc1cccc(-c2nn3c(-c4c[nH]c5ccccc45)nnc3s2)c1` [Compound 5d, 3-[6-(3-Bromophenyl)-[1,2,4]-triazolo[3,4-b]-[1,3,4]-thiadiazol-3-yl]-1H-indole] had a melting point of 179 to 182 °C. The IC50 in the data set on KG1a was 20.2 ± 0.46 µM. Further, half-maximal inhibition with MDA-MB-231 (IC50) required 4.9 ± 0.75 µM. The compound also registered an IC50 with Jurkat of 45.5 ± 0.4 µM. The same compound displayed an IC50 in the data set with HeLa of 6.48 ± 0.67 µM.
`Brc1ccc(-c2nn3c(-c4c[nH]c5ccccc45)nnc3s2)cc1` [Compound 5e, 3-[6-(4-Bromophenyl)-[1,2,4]-triazolo[3,4-b]-[1,3,4]-thiadiazol-3-yl]-1H-indole] gave a melting point of 196 to 198 °C. The same compound returned an IC50 in the data set with KG1a of 4.9 ± 0.73 µM. The same compound registered an IC50 with MDA-MB-231 of 8.29 ± 0.9 µM. For the same compound, the IC50 at His-tagged Bcl-2 protein is 4.6 ± 0.19 µM. In the data set on Jurkat, the “activity against Jurkat cells (in words)” value is given as “no activity” and the IC50 is greater than 100 µM. Besides, in the data set with HeLa, the IC50 turned out to be 9.8 ± 0.3 µM.
Take `Clc1cccc(-c2nn3c(-c4c[nH]c5ccccc45)nnc3s2)c1` [Compound 5f, 3-[6-(3-Chlorophenyl)-[1,2,4]-triazolo[3,4-b]-[1,3,4]-thiadiazol-3-yl]-1H-indole]: the melting point is 185 to 187 °C. This compound showed an IC50 with KG1a of 10.2 ± 0.65 µM. Also, the IC50 with MDA-MB-231 was 12.5 ± 0.66 µM. Also, the IC50 with Jurkat was 20.5 ± 0.52 µM. The midpoint of inhibition with HeLa, the IC50, lay at 3.6 ± 0.52 µM.
On to `Fc1cccc(-c2nn3c(-c4c[nH]c5ccccc45)nnc3s2)c1` [Compound 5g, 3-[6-(3-Fluorophenyl)-[1,2,4]-triazolo[3,4-b]-[1,3,4]-thiadiazol-3-yl]-1H-indole], for which the melting point lay in the range of 183 to 185 °C. This compound registered an IC50 in the data set on KG1a of 8.6 ± 0.22 µM. The IC50 in the data set on MDA-MB-231 stood at 7.5 ± 0.98 µM. The compound also had an IC50 with Jurkat of 65.1 ± 1.25 µM. This compound showed an IC50 with HeLa of 1.99 ± 0.28 µM.
For `O=[N+]([O-])c1ccc(-c2nn3c(-c4c[nH]c5ccccc45)nnc3s2)cc1` [Compound 5h, 3-[6-(4-Nitrophenyl)-[1,2,4]-triazolo[3,4-b]-[1,3,4]-thiadiazol-3-yl]-1H-indole], the melting point is 196 to 198 °C. Besides, in the data set with KG1a, inhibition was half-maximal at 34.5 ± 0.3 µM (IC50). In addition, inhibition in the data set on MDA-MB-231 was half-maximal at 3.16 ± 0.32 µM (IC50). Moreover, in the data set with Jurkat, half-maximal inhibition (IC50) was put at 58.1 ± 1.3 µM. For the same compound, the IC50 with HeLa was 22.1 ± 0.45 µM.
Turning to `FC(F)(F)c1ccc(-c2nn3c(-c4c[nH]c5ccccc45)nnc3s2)cc1` [Compound 5i, 3-[6-(4-Trifluoromethylphenyl)-[1,2,4]-triazolo[3,4-b]-[1,3,4]-thiadiazol-3-yl]-1H-indole], the melting point fell in the range of 194 to 196 °C. The compound also registered an IC50 with KG1a of 2.19 ± 0.72 µM. Moreover, half-maximal inhibition in the data set on MDA-MB-231 (IC50) required 4.22 ± 0.38 µM. Also, on His-tagged Bcl-2 protein, the IC50 worked out at 1.74 ± 0.15 µM. Besides, in the data set on Jurkat, the “activity against Jurkat cells (in words)” value is recorded as “no activity” and the IC50 was greater than 100 µM. Half-maximal inhibition in the data set on HeLa (IC50) required 2.7 ± 0.19 µM.
`O=[N+]([O-])c1cccc(-c2nn3c(-c4c[nH]c5ccccc45)nnc3s2)c1` [Compound 5j, 3-[6-(3-Nitrophenyl)-[1,2,4]-triazolo[3,4-b]-[1,3,4]-thiadiazol-3-yl]-1H-indole]: the IC50 turned out to be 6.82 ± 0.45 µM in the data set on KG1a, 3.6 ± 0.28 µM in the data set with MDA-MB-231, 32.2 ± 1.2 µM in the data set on Jurkat and 2.18 ± 0.73 µM in the data set with HeLa.
The compound `COc1ccc(-c2nn3c(-c4c[nH]c5ccccc45)nnc3s2)c(OC)c1` [Compound 5k, 3-[6-(2,4-Dimethoxyphenyl)-[1,2,4]-triazolo[3,4-b]-[1,3,4]-thiadiazol-3-yl]-1H-indole] came in with a melting point of 178 to 180 °C. Besides, half-maximal inhibition in the data set with KG1a (IC50) was put at 0.31 ± 0.32 µM. Half-maximal inhibition in the data set on MDA-MB-231 (IC50) required 0.7 ± 0.3 µM. The IC50 on His-tagged Bcl-2 protein is 0.32 µM and 0.3 µM and 0.34 µM and 0.36 µM. Also, the “ELISA IC50 compared to (−)-gossypol positive control” value at His-tagged Bcl-2 protein (competitive Bcl-2 ELISA) is “two-fold lower”. For the same compound, in the data set with Jurkat, the “activity against Jurkat cells (in words)” value is listed as “without inhibiting; also recorded: no activity” and the IC50 is greater than 100 µM. Besides, the IC50 in data set [1] lay in the range of 0.31 to 0.7 µM. The same compound displayed an IC50 in the data set on HeLa of 0.57 ± 0.08 µM.
As for `COc1cc(OC)cc(-c2nn3c(-c4c[nH]c5ccccc45)nnc3s2)c1` [Compound 5l, 3-[6-(3,5-Dimethoxyphenyl)-[1,2,4]-triazolo[3,4-b]-[1,3,4]-thiadiazol-3-yl]-1H-indole], the melting point is 193 to 195 °C. This compound also returned an IC50 in the data set with KG1a of 1.15 ± 0.27 µM. Also, the IC50 in the data set with MDA-MB-231 stood at 0.35 ± 0.29 µM. The compound also displayed a 50% inhibitory concentration (IC50) at His-tagged Bcl-2 protein of 0.45 ± 0.03 µM. In the data set with Jurkat, the “activity against Jurkat cells (in words)” value is “no activity” and the IC50 is greater than 100 µM. In the data set on HeLa, this compound displayed an IC50 of 1.42 ± 0.17 µM.
Take `Cc1cc2c(C(C)C)c(O)c(O)c(C=O)c2c(O)c1-c1c(C)cc2c(C(C)C)c(O)c(O)c(C=O)c2c1O` [Gossypol, gossypol, reference compound]: the IC50 with KG1a was determined as 4.2 ± 0.35 µM; in the data set on MDA-MB-231 it was 5.5 ± 0.35 µM; in the data set on Jurkat, 18.1 ± 1.3 µM; in the data set with HeLa it was 4.43 ± 0.54 µM.

Values taken from article PMC8621373, “New Bioactive Fused Triazolothiadiazoles as Bcl-2-Targeted Anticancer Agents” (International Journal of Molecular Sciences, 2021).
